# Laboratory results taken from PMC8041284, “Tunable Methacrylamides for Covalent Ligand Directed Release Chemistry” (Journal of the American Chemical Society, 2021).
# Where two headings read alike, the source gives them in different places. Where a SMILES comes first, the peptide text is derived from it. [ ]: non-standard residue; d: D form.
# Molecular target: BTK (Homo sapiens, UniProt Q06187)
# Assay: biochemical
# [1] = read-out: BTK inhibition (%), 0.75 uM BTK, […] probe 3l, 15 min preincubation
# Chain of BTK (Q06187 402-655 limits assumed): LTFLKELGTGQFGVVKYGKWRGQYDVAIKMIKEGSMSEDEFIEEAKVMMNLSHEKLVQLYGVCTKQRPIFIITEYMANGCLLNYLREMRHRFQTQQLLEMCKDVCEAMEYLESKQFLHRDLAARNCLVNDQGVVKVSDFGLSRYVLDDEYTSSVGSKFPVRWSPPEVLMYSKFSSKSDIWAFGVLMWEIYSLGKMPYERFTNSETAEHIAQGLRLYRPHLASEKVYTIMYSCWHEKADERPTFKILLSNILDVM
Structure (SMILES),inhibition at 10 µM [1] [%],inhibition at 10 µM (read-out: BTK inhibition (%)) [%]
CNCc1ccc(-c2cc(-c3nc(-c4ccc(S(=O)(=O)C(C)C)cc4)cnc3N)on2)cc1 [PCM-0213360],17.9,–
C=C1[C@@H]2CC[C@@H](C2)[C@]1(C)CC/C=C(\C)CO [PCM-0216479],0,–
CC(C)(C)c1cc(C=C(C#N)C#N)cc(Br)c1O [PCM-0094972],57.2,–
NC(=S)N/N=C/c1ncccc1N [PCM-0095816],-1.5,–
O=c1c(-c2ccc(O[C@@H]3O[C@H](CO)[C@@H](O)[C@H](O)[C@H]3O)cc2)coc2cc(O)cc(O)c12 [PCM-0215108],-9.7,–
C[C@@H]1O[C@@H](O[C@H]2[C@H](O[C@H]3CC[C@@]4(C)[C@@H](CC[C@]5(C)[C@@H]4CC=C4[C@@H]6CC(C)(C)CC[C@]6(C(=O)O)CC[C@]45C)[C@]3(C)CO)OC[C@H](O)[C@@H]2O)[C@H](O)[C@H](O)[C@H]1O [PCM-0214969],-10.9,–
CC(C)C[C@H](NC(=O)[C@H](Cc1ccccc1)C[C@@H](O)[C@H](Cc1ccccc1)NC(=O)OC(C)(C)C)C(=O)N[C@@H](Cc1ccccc1)C(N)=O [PCM-0215547],5.4,–
C[C@H](CSC(=O)c1ccccc1)C(=O)N1C[C@@H](Sc2ccccc2)C[C@H]1C(=O)O [PCM-0216252],-43.2,–
CC1=C(C(=O)OC2CCCCC2)C(c2ccc([N+](=O)[O-])cc2)C2=C(CC(C)(C)CC2=O)N1 (stereo not shown) [PCM-0095815],46.3,–
Nc1nc(F)nc2c1ncn2[C@@H]1O[C@H](CO)[C@@H](O)[C@@H]1O [PCM-0086227],-19.5,–
O=C(Nc1ccc(S(=O)(=O)Nc2ccccc2Cl)c(Cl)c1)c1ccccn1 [PCM-0095621],-21.6,–
COc1cc(O)cc(O)c1C(=O)C=Cc1ccccc1 [PCM-0214685],12.5,–
CS(=O)(=O)c1cccc(C[C@H](NC(=O)c2c(Cl)cc3c(c2Cl)CCN(C(=O)c2ccc4ccoc4c2)C3)C(=O)O)c1 [PCM-0214914],-4.7,–
CC(C)n1nccc1-c1ncccc1COc1cccc(O)c1C=O [PCM-0215847],-13.1,–
CCNC(=O)Nc1ccc(-c2nc3c(c(N4CCOC[C@@H]4C)n2)CCN(C2COC2)C3)cc1 [PCM-0095629],3.4,–
CC(C)c1c(C(=O)Nc2ccccc2)c(-c2ccccc2)c(-c2ccc(F)cc2)n1CC[C@@H](O)C[C@@H](O)CC(=O)O [PCM-0064680],10.1,–
CCC(=O)O[C@]1(C(=O)SCF)[C@H](C)C[C@H]2[C@@H]3C[C@H](F)C4=CC(=O)C=C[C@]4(C)[C@@]3(F)[C@@H](O)C[C@@]21C [PCM-0214707],15.2,–
CC(C)=CC[C@@H](O)C1=CC(=O)c2c(O)ccc(O)c2C1=O [PCM-0215694],69.7,–
Cc1ccc(Sc2ccccc2N2CCNCC2)c(C)c1 [PCM-0095609],-6.9,–
COC1(c2sc3c(N4CCOCC4)nc(-c4cnc(N)nc4)nc3c2C)COC1 [PCM-0215460],33.8,–
CN1c2cc(O)c(N=NC(N)=O)cc2CC1S(=O)(=O)O (stereo not shown) [PCM-0095446],-10.9,–
NC(=O)c1cc(F)cc2c1C(=O)N(C1CCN(C3CCC(F)(F)CC3)CC1)C2 [PCM-0215809],4.6,–
CC(C)NCC(O)c1ccc(O)c(O)c1 (stereo not shown) [PCM-0065609],7,–
CNCC(=O)O [PCM-0215710],-11.1,–
COc1cc2c(c(OC)c1OC)-c1c(cc3c(c1OC)OCO3)CC(C)C(C)C2 (stereo not shown) [PCM-0214727],11.7,–

Structure (SMILES),inhibition at 10 µM [1] [%],inhibition at 10 µM (read-out: BTK inhibition (%)) [%]
COc1cc(/C=C/C(=O)O[C@H]2[C@H](O)[C@@H](CO)O[C@@]2(CO)O[C@H]2O[C@H](CO)[C@@H](O)[C@H](O)[C@H]2O)ccc1O [PCM-0216331],-3.1,–
OCc1c[nH]c2ccccc12 [PCM-0091140],-14,–
O=c1[nH]cnc2[nH]ncc12 [PCM-0064482],18.7,–
CCCCCCCCCCCCCCCCCCCCCCCCCCCCO [PCM-0215950],-11.1,–
O=C(O)c1ccc2c3c1cccc3c(=O)n1c3ccccc3nc21 [PCM-0215754],13.8,–
COc1cc(C)[nH]c(=O)c1CNC(=O)c1c(C)n([C@H](C)C2CCOCC2)c2ccccc12 [PCM-0214591],–,-24.7
CCCN1CCCC[C@H]1C(=O)Nc1c(C)cccc1C [PCM-0095613],-24.9,–
O=C(NNc1nc2cc(F)ccc2n2cccc12)c1cnccn1 [PCM-0215229],30.1,–
Cn1cnc2c(F)c(Nc3ccc(Br)cc3F)c(C(=O)NOCCO)cc21 [PCM-0215228],22.8,–
COc1cc2nc(N3CCCN(C)CC3)nc(NC3CCN(Cc4ccccc4)CC3)c2cc1OC [PCM-0064746],-0.7,–
Cc1nc(-c2ccc(OCC(C)C)c(C#N)c2)sc1C(=O)O [PCM-0090390],-3.4,–
C=CC(=O)Nc1cc(Nc2nccc(-c3cn(C)c4ccccc34)n2)c(OC)cc1N(C)CCN(C)C [PCM-0215305],80.7,–
N#C/C(=C\c1ccc(O)c(O)c1)C(=O)NCc1ccccc1 [PCM-0094962],53.1,–
O=C(NCCS(=O)(=O)c1ccc(C(F)(F)F)cn1)c1ccc(Cl)cc1 [PCM-0007384],16.6,–
Cc1cccc2c3c(ccc12)C1=C(C(=O)C3=O)[C@@H](C)CO1 [PCM-0216343],22.4,–
Cc1cc(C)c(S(=O)(=O)n2cc(C)cc2C)c(C)c1 [PCM-0215336],-13.1,–
Cc1cc(N=Nc2ccc(S(=O)(=O)Nc3ccccn3)cc2)c(N)cc1O [PCM-0215414],76.4,–
CCCOc1ccc2c(c1)CC[C@@H]1[C@@H]2CC[C@]2(C)[C@@H](OC)CC[C@@H]12 [PCM-0214906],-24.1,–
NC[C@H]1O[C@H](O[C@H]2[C@H](O)[C@@H](O[C@H]3O[C@H](CO)[C@@H](O)[C@H](N)[C@H]3O)[C@H](N)C[C@@H]2N)[C@H](N)C[C@@H]1O [PCM-0086125],-14.5,–
Nc1ccc(C(=O)NCC(=O)O)cc1 [PCM-0086407],28,–
COc1cn(-c2ccc(-n3cccn3)cc2F)nc(-c2ccnn2-c2ccccc2)c1=O [PCM-0215765],2.3,–
Cc1cc(F)c(Nc2ncnc3cc(OCc4ccccc4)ccc23)cc1O [PCM-0095349],46.9,–
Cc1nc(-c2cccnc2)sc1C(=O)Nc1ccccc1-c1cn2c(CN3CCOCC3)csc2n1 [PCM-0215454],12.4,–
C=CC(=O)Nc1cccc(Oc2nc(Nc3ccc(N4CCN(C)CC4)cc3OC)ncc2Cl)c1 [PCM-0095043],89,–
Cn1cc(C(=O)[C@@H]2CCc3nc[nH]c3C2)c2ccccc21 [PCM-0214919],-3.1,–

Structure (SMILES),inhibition at 10 µM [1] [%],inhibition at 10 µM (read-out: BTK inhibition (%)) [%]
C[C@H](CC[C@@]1(O)O[C@H]2C[C@H]3[C@@H]4CC=C5C[C@@H](O[C@@H]6O[C@H](CO)[C@@H](O[C@@H]7O[C@@H](C)[C@H](O)[C@@H](O)[C@H]7O)[C@H](O)[C@H]6O[C@@H]6O[C@@H](C)[C@H](O)[C@@H](O)[C@H]6O)CC[C@]5(C)[C@H]4CC[C@]3(C)[C@H]2[C@@H]1C)CO[C@@H]1O[C@H](CO)[C@@H](O)[C@H](O)[C@H]1O [PCM-0215060],-28,–
CN[C@@H](C)C(=O)N[C@H](C(=O)N1CCC[C@H]1C(=O)N[C@H]1c2ccccc2C[C@H]1OCC#CC#CCO[C@@H]1Cc2ccccc2[C@@H]1NC(=O)[C@@H]1CCCN1C(=O)[C@@H](NC(=O)[C@H](C)NC)C1CCCCC1)C1CCCCC1 [PCM-0215824],2.6,–
O=P(O)(O)C(O)(Cc1cccnc1)P(=O)(O)O [PCM-0090360],-3.4,–
CC[C@H]1OC(=O)[C@H](C)[C@@H](O[C@H]2C[C@@](C)(OC)[C@@H](O)[C@H](C)O2)[C@H](C)[C@@H](O[C@@H]2O[C@H](C)C[C@H](N(C)C)[C@H]2O)[C@](C)(OC)C[C@@H](C)C(=O)[C@H](C)[C@@H](O)[C@]1(C)O [PCM-0214635],9.3,–
C=CCNC1=C2C[C@@H](C)C[C@H](OC)[C@H](O)[C@@H](C)/C=C(\C)[C@H](OC(N)=O)[C@@H](OC)/C=C\C=C(/C)C(=O)NC(=CC1=O)C2=O [PCM-0094959],14,–
O=C1CCN(c2ccccc2)N1 [PCM-0216111],-12.4,–
CCOC(=O)[C@H](CCc1ccccc1)N[C@@H](C)C(=O)N1Cc2ccccc2C[C@H]1C(=O)O [PCM-0086504],-16.3,–
COc1cc(N)c(Cl)cc1C(=O)N[C@H]1CCN(CCCOc2ccc(F)cc2)C[C@H]1OC [PCM-0086006],13.2,–
CCC(C)(C)c1ccc(CC(C)CN2C[C@@H](C)O[C@@H](C)C2)cc1 (stereo partly shown) [PCM-0090274],-31.9,–
CC#CC(=O)Nc1ccc2ncnc(Nc3cccc(Br)c3)c2c1 [PCM-0215449],103,–
CCOc1cc(C=O)ccc1OC(C)=O [PCM-0216281],4.6,–
Cc1nccn1CCC(C(N)=O)(c1ccccc1)c1ccccc1 [PCM-0216555],1.5,–
COc1cc(/C=C/C(=O)CC(=O)/C=C/c2ccc(O)c(OC)c2)ccc1O [PCM-0091011],102,–
CC(C)C[C@@H]1NC(=O)[C@@H](C(C)C)NC(=O)[C@@H]2CCCN2C(=O)[C@@H](CC(=O)O)NC(=O)[C@@H](Cc2c[nH]c3ccccc23)NC1=O [PCM-0215512] (cyclo(L[dW][dD]P[dV])),-5.4,–
Cc1ccc(Nc2ncc3c(n2)N(C)C(=O)N(c2cc(NC(=O)c4cccc(C(F)(F)F)c4)ccc2C)C3)cn1 [PCM-0215589],36.6,–
C[N+](C)(C)CC(O)CC(=O)O (stereo not shown) [PCM-0090641],-11.7,–
COc1ccc(CCc2cc(OC)c(OC)c(OC)c2)cc1O [PCM-0216418],-24.7,–
C=C[C@@](C)(/C=C/c1ccc(O)cc1)CCC=C(C)C [PCM-0094651],6.9,–
O=c1cccc2n1C[C@@H]1CNC[C@H]2C1 [PCM-0094836],-10.1,–
CN=C(NC#N)NCCSCc1nc[nH]c1C [PCM-0214655],-12.4,–
Nc1nc(Nc2ccc(S(N)(=O)=O)cc2)nn1C(=O)c1c(F)cccc1F [PCM-0095002],84.1,–
CN(C)CCCn1cc(C2=C(c3c[nH]c4ccccc34)C(=O)NC2=O)c2ccccc21 [PCM-0095737],47.6,–
CS(=O)(=O)c1ccc(-c2nnc(/C=C/c3nnc(-c4ccc(C#N)cc4)o3)n2-c2ccccc2Cl)nc1 [PCM-0215499],0,–
